Measurements as given in paper PMC4950319, “Kinetic and structural characterization of amyloid‐β peptide hydrolysis by human angiotensin‐1‐converting enzyme” (The Febs Journal, 2016).
Where “and” joins values, the source holds several entries; their conditions need not be identical. Equal entries are not always repeated. Where no end group is shown, it is not given here. [ ]: non-standard residue; d: D form. The star is where a group is joined. Tyr(3-NO2) = N[C@@H](Cc1ccc(O)c([N+](=O)[O-])c1)C(=O)O; EDDnp = O=[N+]([O-])c1ccc(NCCN*)c([N+](=O)[O-])c1; 2Abz = Nc1ccccc1C(=O)O; Cbz = O=C(OCc1ccccc1)*

Assays:
sACE (human ACE) = conditions: cited from earlier work; for degree of cooperativity between domains: compared with many synthetic peptides; for interdomain cooperativity: human ACE enzymes
Excerpt: Due to the C‐domain's poorer hydrolysis of Aβ we can infer that the C‐domain appears ...

ACE = conditions: full‐length Aβ(1–42); cited from earlier work
Excerpt: This type of cleavage has been observed in previous studies with other amyloid peptides 23, 24 and was also observed in the crystal structures of the N‐domain in complex with all the Aβ fragments tested. Based on the MS analysis of th ...

[1] = target: full-length domain knockout variant of human sACE with only the N-domain active (N-sACE) (human) (UniProt P12821)
[2] = target: human wild-type somatic ACE (sACE) (human) (UniProt P12821)
[3] = target: soluble form of the N-domain of human sACE (Ndom) (human) (UniProt P12821)
[4] = target: full-length domain knockout variant of human sACE with only the C-domain active (C-sACE) (human) (UniProt P12821)
sACE [5] = target: T1, sACE (Homo sapiens, UniProt P12821); experiment: Interdomain cooperativity in hydrolysis of Aβ substrates; type: biochemical; conditions: two domains of sACE, truncated and full‐length constructs compared
T1 construct: made in house; host or cells: CHO cells; purified from cell lysate
Experimental: Mixtures were separated on a Poroshell 120 EC‐18 column with a 2.7 μm pore size. The reaction consists of 25 μL substrate incubated with 25 μL enzyme for 15 min at 37 °C and was stopped with the addition of 10 μL of 0.25% trifluoroacetic acid (TFA). The total reaction (60 μL) was cleared of contaminants on a spin column (GHP Nanosep® MF Centrifugal Device 0.45 μm pore size) and run on the HPLC. Kinetic parameters were determined through the fitting of initial rates to the Michaelis–Menten equation with […] PRISM software (v 4.01, GraphPad Prism®).
The reaction was incubated for 15 min at 37 °C and stopped with the addition of 10 μL 0.25% TFA to make up a total volume of 60 μL. The reactions were performed in triplicate and 50 μL injections were analysed via HPLC (Agilent Technologies) across a gradient of 0.1% TFA and 2% ACN in water to 0.1% TFA, 95% ACN. A calibration curve was set up to convert the product peak area to picomoles product formed, through the complete hydrolysis of the substrate with the N‐domain. […] Kinetic constants were calculated using the Michaelis–Menten method using […] […]
The assay is a modified form of the continuous assay 7 where the assay is set up on ice in triplicate in a 96‐well plate. The baseline fluorescence was at time zero and then the substrate was incubated at 37 °C and fluorescence read at the 45 min time point on a Cary Eclipse spectrofluorimeter (Varian Inc.) at λex = 320 nm and λem = 420 nm. Again, kinetic constants were calculated using the Michaelis–Menten method with […] […] The detected fluorescence was converted to picamoles product formed through the slope of a calibration curve of Abz‐Gly. […]
An alternative fluorogenic peptide, Abz‐FRHDSG‐(NT) (BIOPEP™ South Africa) was assayed, with 100 μL enzyme and 100 μL substrate (at a final enzyme concentration within 10% hydrolysis of total substrate; see Table 3) as above, in 96‐well plates. The samples were read at the 5 min time point on a Cary Eclipse spectrofluorimeter (Varian Inc.) at λex = 320 nm and λem = 420 nm. Kinetic constants, inner filter effect and standard curves were calculated as above.

C‐sACE = target: T2, C‐sACE (Homo sapiens, UniProt P12821, H390K/H394K); experiment: Aβ(4–10)Q hydrolysis by C‐sACE, fluorogenic assay; type: biochemical; conditions: fluorescence λex 320 nm, λem 420 nm, 50 mM Hepes pH 7.5, 100 mM NaCl, 10 μM ZnSO4, substrate 0 to 30 μM, 45 min, 37 °C, enzyme 1.50 pmol, n = 3
T2 construct: Both constructs have the complete signal, transmembrane and stalk region corresponding to full‐length sACE; made in house; host or cells: CHO cells; purified from cell lysate
Excerpt: (§1) Fluorogenic substrates designed around the established N‐terminal Asp7‐Ser8 cleavage site of the full‐length Aβ(1–42) were used to develop a higher throughput assay. There are two variations of the short fluorogenic peptides: Aβ(4–10)Q (Abz‐FRHDSG(Q)‐EDDnp) which has an N‐terminal Abz donor and a C‐terminal EDDnp quencher group attached to an additional Gln residue. The second peptide, Aβ(4–10)Y (Abz‐FRHDSG‐(NT)) has a different quencher molecule, NT, which substitutes for the naturally occurring Tyr residue.
(§2) Hydrolysis of the fluorogenic peptide Abz‐FRHDSG(Q)‐EDDnp (Aβ(4–10)Q, obtained from A. Carmona, Universidade Federal de São Paulo, Brazil) was performed in Hepes buffer (50 mM Hepes pH 7.5, 100 mM NaCl, 10 μM ZnSO4 buffer) with 150 μL enzyme (at final concentrations within 10% hydrolysis of total substrate; see Table 2) and equal volume of substrate ranging from 0 to 30 μM. The assay is a modified form of the continuous assay 7 where the assay is set up on ice in triplicate in a 96‐well plate. The baseline fluorescence was at time zero and then the substrate was incubated at 37 °C and fluorescence read at the 45 min time point on a Cary Eclipse spectrofluorimeter (Varian Inc.) at λex = 320 nm and λem = 420 nm. Again, kinetic constants were calculated using the Michaelis–Menten method with […] PRISM software (v4.01, GraphPad Prism®). The detected fluorescence was converted to picamoles product formed through the slope of a calibration curve of Abz‐Gly. A correction curve was also applied to correct the data for the inner filter effect 70.
(§3) Statistical analysis of the data was determined by Student's t test. Differences with P < 0.05 were considered statistically significant. Fractional error was calculated for the k cat/K m ratio with the following equation: ΔZ=ZΔa/a^2+Δb/b^2 where Z represents the mean k cat/K m and ΔZ represents the fractional error. The Δa represents the SEM of the mean k cat (a). Similarly, Δb represents the SEM of the mean K m (b).

[6] = target: T3, Ndom (soluble form of the N‐domain of sACE) (Homo sapiens, UniProt P12821); experiment: Aβ(4–10)Q hydrolysis by Ndom, fluorogenic assay; type: biochemical; conditions: fluorescence λex 320 nm, λem 420 nm, 50 mM Hepes pH 7.5, 100 mM NaCl, 10 μM ZnSO4, substrate 0 to 30 μM, 45 min, 37 °C, enzyme 0.60 pmol, n = 3
T3 construct: made in house; host or cells: CHO cells
Excerpt: as §1, §2, §3

N‐sACE = target: T4, N‐sACE (Homo sapiens, UniProt P12821, H988K/H992K); experiment: Aβ(4–10)Q hydrolysis by N‐sACE, fluorogenic assay; type: biochemical; conditions: fluorescence λex 320 nm, λem 420 nm, 50 mM Hepes pH 7.5, 100 mM NaCl, 10 μM ZnSO4, substrate 0 to 30 μM, 45 min, 37 °C, enzyme 9.00 pmol, n = 3
T4 construct: Both constructs have the complete signal, transmembrane and stalk region corresponding to full‐length sACE; made in house; host or cells: CHO cells; purified from cell lysate
Excerpt: as §1, §2, §3

ACE variants = experiment: Cleavage‐site analysis by MALDI‐TOF MS, kinetic assay conditions; type: biochemical, human; conditions: MALDI‐TOF MS of products within kinetic assay conditions; Aβ(1–16): all ACE variants except Cdom; Aβ(4–10) peptides: Cdom and CC‐sACE not analysed
Experimental: The mass spectrometry was analysed at the Centre for Proteomic and Genomic Research (Cape Town, South Africa). Briefly, the collected peptides were spotted onto a 10 mg·mL^−1 α‐cyano‐4‐hydroxycinnamic acid matrix (Fluka, USA) in 80% ACN, 0.2% TFA for a final concentration of 5 mg·mL^−1 matrix in 40% ACN, 0.1% TFA, 10 mM NH4H2PO4. Mass spectrometry was performed with a 4800 MALDI‐TOF/TOF (Applied Biosytems) with all spectra recorded in positive reflector mode. Spectra were generated with 400 laser shots/spectrum at a laser intensity of 3800 (arbitrary units) with a grid voltage of 16 kV.

sACE [7] = target: T1, sACE; experiment: Aβ(4–10)Q hydrolysis by sACE, fluorogenic assay; type: biochemical; conditions: fluorescence λex 320 nm, λem 420 nm, 50 mM Hepes pH 7.5, 100 mM NaCl, 10 μM ZnSO4, substrate 0 to 30 μM, 45 min, 37 °C, enzyme 1.50 pmol, n = 3
Excerpt: as §1, §2, §3

CC‐sACE = experiment: Aβ(4–10)Q hydrolysis by CC‐sACE, fluorogenic assay; type: biochemical, human; conditions: Hepes pH 7.5, 37 °C, 45 min, fluorescence
Excerpt: as §1
as §2, with “The assay is a modified form of the continuous assay 7 where the assay is set up on ice in triplicate in a 96‐well plate.” left out, “PRISM software (v4.01, GraphPad Prism®).” left out, “A correction curve was also applied to correct the data for the inner filter effect 70.” left out
Statistical analysis of the data was determined by Student's t test. […]

[8] = target: full-length domain knockout variant of human sACE with only the N-domain active (N-sACE) (human) (UniProt P12821); remark: listed apart in the source
[9] = target: full-length domain knockout variant of human sACE with only the C-domain active (C-sACE) (human) (UniProt P12821); remark: listed apart in the source
[10] = target: full-length domain knockout variant of human sACE with only the N-domain active (N-sACE) (human) (UniProt P12821); remark: listed apart in the source
[11] = target: full-length domain knockout variant of human sACE with only the C-domain active (C-sACE) (human) (UniProt P12821); remark: listed apart in the source
[12] = mean ± fractional error of the ratio

T1 sequence (P12821 30-1306): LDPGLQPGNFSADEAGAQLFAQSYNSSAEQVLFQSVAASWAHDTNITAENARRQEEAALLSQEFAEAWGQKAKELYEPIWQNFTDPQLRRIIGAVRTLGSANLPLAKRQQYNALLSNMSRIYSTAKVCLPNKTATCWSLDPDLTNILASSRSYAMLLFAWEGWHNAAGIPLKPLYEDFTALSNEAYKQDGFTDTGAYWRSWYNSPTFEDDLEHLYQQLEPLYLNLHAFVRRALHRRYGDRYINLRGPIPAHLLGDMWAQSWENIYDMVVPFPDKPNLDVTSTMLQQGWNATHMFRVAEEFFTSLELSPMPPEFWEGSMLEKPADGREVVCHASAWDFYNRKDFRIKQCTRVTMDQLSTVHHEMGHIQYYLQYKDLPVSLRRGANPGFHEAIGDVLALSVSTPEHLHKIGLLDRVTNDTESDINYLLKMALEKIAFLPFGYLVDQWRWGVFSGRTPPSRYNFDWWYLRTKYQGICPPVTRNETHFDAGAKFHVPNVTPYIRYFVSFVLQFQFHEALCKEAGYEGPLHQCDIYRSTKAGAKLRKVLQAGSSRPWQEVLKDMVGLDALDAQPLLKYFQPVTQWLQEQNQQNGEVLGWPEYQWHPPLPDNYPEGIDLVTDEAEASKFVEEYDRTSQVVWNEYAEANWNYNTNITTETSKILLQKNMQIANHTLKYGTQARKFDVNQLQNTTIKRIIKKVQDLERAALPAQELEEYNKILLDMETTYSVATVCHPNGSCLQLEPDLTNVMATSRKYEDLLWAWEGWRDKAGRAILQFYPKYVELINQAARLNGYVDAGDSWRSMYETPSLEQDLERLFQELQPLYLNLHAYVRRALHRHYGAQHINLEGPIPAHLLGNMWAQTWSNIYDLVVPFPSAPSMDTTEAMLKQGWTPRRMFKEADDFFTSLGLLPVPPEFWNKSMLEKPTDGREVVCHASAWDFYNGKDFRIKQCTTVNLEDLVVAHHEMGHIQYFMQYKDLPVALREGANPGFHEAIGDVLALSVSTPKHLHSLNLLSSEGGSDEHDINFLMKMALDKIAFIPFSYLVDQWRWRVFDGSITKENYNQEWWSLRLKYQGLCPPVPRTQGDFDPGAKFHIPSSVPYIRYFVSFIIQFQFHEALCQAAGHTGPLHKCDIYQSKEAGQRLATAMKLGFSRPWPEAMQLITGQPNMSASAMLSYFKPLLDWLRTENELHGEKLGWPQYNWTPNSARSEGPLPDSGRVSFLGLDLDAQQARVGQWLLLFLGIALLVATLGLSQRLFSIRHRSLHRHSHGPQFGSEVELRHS
Chain of full-length domain knockout variant of human sACE with only the C-domain active (C-sACE) (human) (P12821 other isoform, or with tags, fused parts or gaps, stated change not applied): as the sequence (P12821 30-1306) above, with H361K, H365K counted along it
T2 sequence (P12821 30-1306 H390K/H394K): as the sequence (P12821 30-1306) above, with H361K, H365K counted along it
T4 sequence (P12821 30-1306 H988K/H992K): as the sequence (P12821 30-1306) above, with H959K, H963K counted along it
Chain of full-length domain knockout variant of human sACE with only the N-domain active (N-sACE) (human) (P12821 other isoform, or with tags, fused parts or gaps, change not shown): as the sequence (P12821 30-1306) above, with H959K, H963K counted along it
T3 sequence (P12821 30-658): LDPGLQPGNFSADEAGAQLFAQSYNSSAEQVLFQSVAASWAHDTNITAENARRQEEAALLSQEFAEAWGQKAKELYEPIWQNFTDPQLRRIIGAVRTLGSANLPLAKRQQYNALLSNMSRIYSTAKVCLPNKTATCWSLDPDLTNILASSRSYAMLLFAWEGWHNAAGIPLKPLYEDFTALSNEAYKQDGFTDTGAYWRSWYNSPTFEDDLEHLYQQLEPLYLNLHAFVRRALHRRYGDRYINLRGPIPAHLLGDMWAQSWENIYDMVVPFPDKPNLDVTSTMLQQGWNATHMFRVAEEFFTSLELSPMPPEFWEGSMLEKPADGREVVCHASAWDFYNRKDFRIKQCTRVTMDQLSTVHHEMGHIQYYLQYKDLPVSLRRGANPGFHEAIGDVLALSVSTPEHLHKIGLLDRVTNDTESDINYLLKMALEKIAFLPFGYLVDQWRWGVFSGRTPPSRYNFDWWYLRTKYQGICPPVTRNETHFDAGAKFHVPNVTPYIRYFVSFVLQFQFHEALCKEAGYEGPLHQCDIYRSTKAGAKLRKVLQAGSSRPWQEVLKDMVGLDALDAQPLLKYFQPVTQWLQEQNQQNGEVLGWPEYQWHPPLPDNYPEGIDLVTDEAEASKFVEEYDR
Chain of human wild-type somatic ACE (sACE) (human) (P12821 30-1306): as the sequence (P12821 30-1306) above
Chain of CC‐sACE (P12821 643-1222 limits assumed): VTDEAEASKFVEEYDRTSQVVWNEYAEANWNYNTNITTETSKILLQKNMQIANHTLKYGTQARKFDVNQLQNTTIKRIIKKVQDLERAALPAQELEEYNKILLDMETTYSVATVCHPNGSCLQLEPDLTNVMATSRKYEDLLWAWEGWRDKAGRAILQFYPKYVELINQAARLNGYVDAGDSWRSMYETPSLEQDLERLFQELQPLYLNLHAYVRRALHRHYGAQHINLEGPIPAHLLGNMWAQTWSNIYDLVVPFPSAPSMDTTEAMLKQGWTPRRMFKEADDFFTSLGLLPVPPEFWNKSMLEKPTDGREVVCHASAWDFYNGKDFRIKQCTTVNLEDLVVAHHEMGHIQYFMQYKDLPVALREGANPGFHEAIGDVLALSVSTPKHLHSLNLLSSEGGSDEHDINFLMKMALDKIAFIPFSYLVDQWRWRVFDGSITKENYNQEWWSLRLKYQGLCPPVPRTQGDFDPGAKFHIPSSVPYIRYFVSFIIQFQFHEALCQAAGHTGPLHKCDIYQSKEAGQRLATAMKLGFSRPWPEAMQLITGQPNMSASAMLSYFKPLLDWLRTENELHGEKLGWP
Chain of soluble form of the N-domain of human sACE (Ndom) (human) (P12821 30-658): as the sequence (P12821 30-658) above

angiotensin‐(1‐9) (DRVYIHPFH; Angiotensin 1-9; UniProt P01019 25-33, looked up, fragment) [physiological substrate]
degree of cooperativity between domains (sACE (human ACE)): considerably less than many synthetic peptides | interdomain cooperativity (sACE (human ACE)): showed a similar result for angiotensin I and angiotensin‐(1‐7) but not angiotensin‐(1‐9)

angiotensin‐(1‐7) (DRVYIHP; Angiotensin 1-7; UniProt P01019 25-31, looked up, fragment) [physiological substrate]
interdomain cooperativity (sACE (human ACE)): showed a similar result for angiotensin I and angiotensin‐(1‐7) but not angiotensin‐(1‐9)

angiotensin I (DRVYIHPFHL; Angiotensin-1; UniProt P01019 25-34, looked up) [physiological ACE substrate]
interdomain cooperativity (sACE (human ACE)): showed a similar result for angiotensin I and angiotensin‐(1‐7) but not angiotensin‐(1‐9)

Cbz-Phe-His-Leu [ACE substrate]
effect of the presence of the N‐domain on hydrolysis (sACE (human ACE)): regulatory effects

bradykinin (RPPGFSPFR; Bradykinin; UniProt P01042 381-389, looked up) [vasodilatory peptide, physiological substrate]
degree of cooperativity between domains (sACE (human ACE)): considerably less than many synthetic peptides

(Abz)‐LFK(Dnp)‐OH
effect of the presence of the N‐domain on hydrolysis (sACE (human ACE)): regulatory effects

Aβ(1–42): full‐length Aβ(1–42)
cleavage sites (ACE): multiple cleavage sites

Aβ(1–16) (H-…-OH) (peptide)
Km of hydrolysis of Aβ(1–16) (HPLC assay, 15 min, 37 °C, 50 mM Hepes pH 7.5, 100 mM NaCl, 10 μM ZnSO4) [1]: 34.2 μM | Km of hydrolysis of Aβ(1–16) (HPLC assay, 15 min, 37 °C, 50 mM Hepes pH 7.5, 100 mM NaCl, 10 μM ZnSO4) [2]: 35.2 μM | Km of hydrolysis of Aβ(1–16) (HPLC assay, 15 min, 37 °C, 50 mM Hepes pH 7.5, 100 mM NaCl, 10 μM ZnSO4) [3]: 21.4 μM | Km of hydrolysis of Aβ(1–16) (HPLC assay, 15 min, 37 °C, 50 mM Hepes pH 7.5, 100 mM NaCl, 10 μM ZnSO4) [4]: 42.4 μM

Abz‐FRHDSG(Q)‐EDDnp [Aβ(4–10)Q, fluorogenic Aβ(4–10) peptide, Abz donor, EDDnp quencher attached to additional Gln]
interdomain cooperativity (sACE [5]): This is also true for the Aβ(4–10)Q substrate, although to a much lesser extent | K m (C‐sACE; mean ± SEM): 11.50 ± 3.03 µM | V max (C‐sACE; mean ± SEM): 0.12 ± 0.01 | k cat (C‐sACE; mean ± SEM): 0.08 ± 0.01 s⁻¹ | k cat/K m (C‐sACE; [12]): 0.08 ± 0.02 M^−1·s^−1 × 10^5 | K m ([6]; mean ± SEM): 22.20 ± 3.23 µM | V max ([6]; mean ± SEM): 0.29 ± 0.02 | k cat ([6]; mean ± SEM): 0.48 ± 0.04 s⁻¹ | k cat/K m [6, 12]: 0.22 M^−1·s^−1 × 10^5 and 0.22 ± 0.04 M^−1·s^−1 × 10^5 | K m (N‐sACE; mean ± SEM): 42.43 ± 3.92 µM | V max (N‐sACE; mean ± SEM): 3.23 ± 0.20 | k cat (N‐sACE; mean ± SEM): 0.36 ± 0.02 s⁻¹ | k cat/K m (N‐sACE; [12]): 0.09 M^−1·s^−1 × 10^5 and 0.09 ± 0.01 M^−1·s^−1 × 10^5 | cleavage site (bond) (ACE variants): Asp7‐Ser8 | K m (sACE [7]; mean ± SEM): 22.90 ± 3.45 µM | V max (sACE [7]; mean ± SEM): 0.09 ± 0.01 | k cat (sACE [7]; mean ± SEM): 0.06 ± 0.01 s⁻¹ | k cat/K m (sACE [7]; [12]): 0.03 ± 0.01 M^−1·s^−1 × 10^5 | hydrolysis by CC‐sACE (CC‐sACE): almost no hydrolysis

[2Abz]FRHDSGQ-EDDnp [Aβ(4–10)Q (Abz-FRHDSG(Q)-EDDnp)]
Km of hydrolysis of Aβ(4–10)Q (fluorescence assay, 45 min, 37 °C, 50 mM Hepes pH 7.5, 100 mM NaCl, 10 μM ZnSO4) [8]: 42.4 μM | Km of hydrolysis of Aβ(4–10)Q (fluorescence assay, 45 min, 37 °C, 50 mM Hepes pH 7.5, 100 mM NaCl, 10 μM ZnSO4) [9]: 11.5 μM

[2Abz]FRHDSG[Tyr(3-NO2)] [Aβ(4–10)Y (Abz-FRHDSG-(NT))]
Km of hydrolysis of Aβ(4–10)Y (fluorescence assay, read at 5 min) [10]: 8.56 µM | Km of hydrolysis of Aβ(4–10)Y (fluorescence assay, read at 5 min) [11]: 38.1 µM
